Source: paper PMC11079024, “Identification of a family of species-selective complex I inhibitors as potential anthelmintics” (Nature Communications, 2024)
Where “and” joins values, the source holds several entries; their conditions need not be identical. Identical values can stand only once. Like-named read-outs stand apart in the source and are kept apart here.

Target: B. taurus (heart) complex I (Bos taurus, UniProt P03887+P17694+P42026)
Assay: biochemical
Assay type: biochemical
Details: for activity at 0.0001 µM / Complex I activity, dose-response data / activity at 0.0005 µM / activity at 0.001 µM / activity at 0.0025 µM / activity at 0.005 µM / activity at 0.013 µM / activity at 0.025 µM / activity at 0.063 µM / activity at 0.125 µM / activity at 0.313 µM / activity at 0.625 µM / activity at 1.5 µM / activity at 3 µM / activity at 15 µM / activity at 37.5 µM / activity at 75 µM: B. taurus; for activity at 0.0001 µM / activity at 0.0005 µM / activity at 0.001 µM / activity at 0.0025 µM / activity at 0.005 µM / activity at 0.013 µM / activity at 0.025 µM / activity at 0.063 µM / activity at 0.125 µM / activity at 0.313 µM / activity at 0.625 µM / activity at 1.5 µM / activity at 3 µM / activity at 15 µM / activity at 37.5 µM / activity at 75 µM: read-out: Complex I activity, dose-response data; for IC50: heart mitochondria, read-out: B. taurus Complex I IC50
How it was run: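 Complex I activity followed as DCIP reduction (600 nm, 30 s reads, 15 min) with 80 μM NADH and 60 μM decylubiquinone in 25 mM KPi pH 7.5 containing 2 μM antimycin A and 2 mM KCN. Freeze-thawed mouse or bovine heart mitochondria at 0.2 mg/mL; initial-rate percent of solvent control, single-point 100 μM or dose-response.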

[1] = dose 0.0001 µM, Mean of replicates
[2] = dose 0.0001 µM, individual replicates (Rep)
[3] = dose 0.0005 µM, Mean of replicates
[4] = dose 0.0005 µM, individual replicates (Rep)
[5] = dose 0.001 µM, Mean of replicates
[6] = dose 0.001 µM, individual replicates (Rep)
[7] = dose 0.0025 µM, Mean of replicates
[8] = dose 0.0025 µM, individual replicates (Rep)
[9] = dose 0.005 µM, Mean of replicates
[10] = dose 0.005 µM, individual replicates (Rep)
[11] = dose 0.013 µM, Mean of replicates
[12] = dose 0.013 µM, individual replicates (Rep)
[13] = dose 0.025 µM, Mean of replicates
[14] = dose 0.025 µM, individual replicates (Rep)
[15] = dose 0.063 µM, Mean of replicates
[16] = dose 0.063 µM, individual replicates (Rep)
[17] = dose 0.125 µM, Mean of replicates
[18] = dose 0.125 µM, individual replicates (Rep)
[19] = dose 0.313 µM, Mean of replicates
[20] = dose 0.313 µM, individual replicates (Rep)
[21] = dose 0.625 µM, Mean of replicates
[22] = dose 0.625 µM, individual replicates (Rep)
[23] = dose 1.5 µM, Mean of replicates
[24] = dose 1.5 µM, individual replicates (Rep)
[25] = dose 3 µM, individual replicates (Rep)
[26] = dose 15 µM, individual replicates (Rep)
[27] = dose 37.5 µM, Mean of replicates
[28] = dose 37.5 µM, individual replicates (Rep)
[29] = dose 75 µM, individual replicates (Rep)
[30] = B. taurus (heart) mitochondria, mean of replicates, read-out: percent (%) in vitro complex I activity relative to solvent control
[31] = B. taurus (heart) mitochondria, single replicate, read-out: percent (%) in vitro complex I activity relative to solvent control

Sequence of B. taurus (heart) complex I (P03887 whole entry): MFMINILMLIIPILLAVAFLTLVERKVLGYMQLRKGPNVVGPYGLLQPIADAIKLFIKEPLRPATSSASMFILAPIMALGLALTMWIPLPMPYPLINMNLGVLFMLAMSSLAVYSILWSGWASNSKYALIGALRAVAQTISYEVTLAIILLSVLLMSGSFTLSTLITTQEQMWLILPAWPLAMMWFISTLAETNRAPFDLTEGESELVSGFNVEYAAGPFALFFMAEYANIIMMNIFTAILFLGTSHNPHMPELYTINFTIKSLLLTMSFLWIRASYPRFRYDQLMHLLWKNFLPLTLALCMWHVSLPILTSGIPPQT
Sequence of B. taurus (heart) complex I (P17694 34-463): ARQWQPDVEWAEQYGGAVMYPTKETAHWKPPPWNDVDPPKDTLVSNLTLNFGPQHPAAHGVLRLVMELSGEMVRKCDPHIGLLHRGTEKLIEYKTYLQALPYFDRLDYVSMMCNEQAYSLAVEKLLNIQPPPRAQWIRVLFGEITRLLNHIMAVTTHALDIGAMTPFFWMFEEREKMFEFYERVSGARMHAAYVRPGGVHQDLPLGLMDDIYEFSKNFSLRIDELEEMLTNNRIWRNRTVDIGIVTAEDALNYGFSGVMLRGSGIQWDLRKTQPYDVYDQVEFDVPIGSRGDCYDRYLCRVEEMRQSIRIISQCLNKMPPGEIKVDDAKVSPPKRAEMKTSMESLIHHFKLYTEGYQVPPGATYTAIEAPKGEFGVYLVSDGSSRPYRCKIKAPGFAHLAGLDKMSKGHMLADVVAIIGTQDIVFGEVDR
Sequence of B. taurus (heart) complex I (P42026 38-216): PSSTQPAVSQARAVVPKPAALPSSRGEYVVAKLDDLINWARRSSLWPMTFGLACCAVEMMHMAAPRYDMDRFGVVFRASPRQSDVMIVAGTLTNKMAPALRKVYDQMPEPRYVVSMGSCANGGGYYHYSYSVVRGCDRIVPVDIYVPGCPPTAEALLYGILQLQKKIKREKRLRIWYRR

## COc1cc2c(cc1OC)C(c1ccc(-c3ccc(Cl)c(Cl)c3)o1)=NCC2 [NPD3577]
[1]
  activity at 0.0001 µM: 105%
[2]
  Complex I activity, dose-response data: 103.121 and 101.731 and 110.652
  activity at 0.0001 µM: 106%
[3]
  activity at 0.0005 µM: 100%
[4]
  activity at 0.0005 µM: 100%
[5]
  activity at 0.001 µM: 106%
[6]
  Complex I activity, dose-response data: 115.208 and 104.399 and 94.945 and 110.770
[7]
  activity at 0.0025 µM: 109%
[8]
  Complex I activity, dose-response data: 105.176 and 104.207 and 109.459
  activity at 0.0025 µM: 117%
[9]
  activity at 0.005 µM: 109%
[10]
  Complex I activity, dose-response data: 109.688 and 97.845 and 112.943
  activity at 0.005 µM: 116%
[11]
  activity at 0.013 µM: 106%
[12]
  Complex I activity, dose-response data: 116.009 and 85.825 and 105.823 and 114.478
[13]
  activity at 0.025 µM: 115%
[14]
  Complex I activity, dose-response data: 117.057 and 109.262 and 110.097
  activity at 0.025 µM: 124%
[15]
  activity at 0.063 µM: 111%
[16]
  Complex I activity, dose-response data: 116.393 and 107.485 and 112.565
  activity at 0.063 µM: 107%
[17]
  activity at 0.125 µM: 106%
[18]
  Complex I activity, dose-response data: 115.491 and 103.072 and 105.491
  activity at 0.125 µM: 100%
[19]
  activity at 0.313 µM: 109%
[20]
  Complex I activity, dose-response data: 109.249 and 104.276 and 103.070
  activity at 0.313 µM: 118%
[21]
  activity at 0.625 µM: 99%
[22]
  Complex I activity, dose-response data: 89.823 and 107.117 and 107.828
  activity at 0.625 µM: 91.2%
[23]
  activity at 1.5 µM: 100%
[24]
  activity at 1.5 µM: 100%
Dose 3 µM, Mean of replicates
  activity at 3 µM: 95.5%
[25]
  Complex I activity, dose-response data: 93.418 and 99.797 and 99.095
  activity at 3 µM: 89.6%
Dose 15 µM, Mean of replicates
  activity at 15 µM: 43.4%
[26]
  Complex I activity, dose-response data: 55.501 and 46.406 and 43.941 and 27.922
[27]
  activity at 37.5 µM: 26.1%
[28]
  Complex I activity, dose-response data: 16.844 and 31.768 and 25.172
  activity at 37.5 µM: 30.8%
Dose 75 µM, Mean of replicates
  activity at 75 µM: 23.8%
[29]
  Complex I activity, dose-response data: 15.504 and 26.993 and 22.808
  activity at 75 µM: 30%
  IC50: 9.49 µM

## COc1ccc(Cc2nccc3cc(OC)c(OC)cc23)cc1OC [Papaverine, reference compound]
[30]
  remaining activity at 0.125 µM: 93.4%
  remaining activity at 0.313 µM: 93.3%
  remaining activity at 0.625 µM: 91.6%
  remaining activity at 1.5 µM: 83.3%
  remaining activity at 75 µM: 6.58%
[31]
  remaining activity at 0.125 µM: 87.6%
  remaining activity at 0.313 µM: 92.3%
  remaining activity at 0.625 µM: 89.2%
  remaining activity at 1.5 µM: 88.4%
  remaining activity at 75 µM: 9.15%
3 µM, B. taurus (heart) mitochondria, mean of replicates, read-out: percent (%) in vitro complex I activity relative to solvent control
  remaining activity at 3 µM: 76.1%
15 µM, B. taurus (heart) mitochondria, mean of replicates, read-out: percent (%) in vitro complex I activity relative to solvent control
  remaining activity at 15 µM: 30.1%
37.5 µM, B. taurus (heart) mitochondria, mean of replicates, read-out: percent (%) in vitro complex I activity relative to solvent control
  remaining activity at 37.5 µM: 12.9%
  IC50: 8.5 µM

## COc1cc2c(cc1OC)C(/C=C/c1ccc(N(C)C)cc1)=NCC2 [NPD6303]
[1]
  activity at 0.0001 µM: 91.7%
[2]
  Complex I activity, dose-response data: 93.903 and 88.856 and 86.554
  activity at 0.0001 µM: 97.5%
[3]
  activity at 0.0005 µM: 92.3%
[4]
  Complex I activity, dose-response data: 92.515 and 88.363 and 93.860
  activity at 0.0005 µM: 94.5%
[5]
  activity at 0.001 µM: 92%
[6]
  Complex I activity, dose-response data: 95.392 and 88.341 and 90.155
  activity at 0.001 µM: 93.9%
[7]
  activity at 0.0025 µM: 91.7%
[8]
  Complex I activity, dose-response data: 92.736 and 89.606 and 94.534
  activity at 0.0025 µM: 89.8%
[9]
  activity at 0.005 µM: 93.7%
[10]
  Complex I activity, dose-response data: 98.592 and 81.676 and 99.845
  activity at 0.005 µM: 94.8%
[11]
  activity at 0.013 µM: 94.7%
[12]
  Complex I activity, dose-response data: 95.041 and 103.924 and 78.354 and 101.425
[13]
  activity at 0.025 µM: 91.5%
[14]
  Complex I activity, dose-response data: 93.260 and 100.684 and 76.425 and 95.829
[15]
  activity at 0.063 µM: 90.4%
[16]
  Complex I activity, dose-response data: 90.670 and 95.493 and 75.718 and 99.663
[17]
  activity at 0.125 µM: 88.5%
[18]
  Complex I activity, dose-response data: 91.682 and 93.823 and 68.860 and 99.585
[19]
  activity at 0.313 µM: 88.2%
[20]
  Complex I activity, dose-response data: 96.036 and 78.933 and 86.373
  activity at 0.313 µM: 91.3%
[21]
  activity at 0.625 µM: 97.3%
[22]
  Complex I activity, dose-response data: 107.704 and 91.974 and 95.636
  activity at 0.625 µM: 93.9%
[23]
  activity at 1.5 µM: 93.1%
[24]
  Complex I activity, dose-response data: 104.204 and 86.663 and 89.601
  activity at 1.5 µM: 92.1%
Dose 3 µM, Mean of replicates
  activity at 3 µM: 91.2%
[25]
  Complex I activity, dose-response data: 87.892 and 104.226 and 89.807 and 82.898
Dose 15 µM, Mean of replicates
  activity at 15 µM: 76.4%
[26]
  Complex I activity, dose-response data: 86.661 and 69.921 and 66.695
  activity at 15 µM: 82.4%
[27]
  activity at 37.5 µM: 51.7%
[28]
  Complex I activity, dose-response data: 53.115 and 63.240 and 41.319 and 49.280
Dose 75 µM, Mean of replicates
  activity at 75 µM: 29.9%
[29]
  Complex I activity, dose-response data: 35.395 and 24.387 and 27.438
  activity at 75 µM: 32.4%
  IC50: 34.3 µM
